Test results reported in patent EP4775208A1, “USE OF PRMT5 INHIBITOR IN TREATMENT OF TUMORS OR CANCERS” (Apeiron Therapeutics (Hong Kong) Ltd., priority 2023, dated 2025).
Where two headings read alike, the source gives them in different places.

Tests used:
Format in all cases: cell-based
MKN-45 = test: Mini cell panel: inhibition of proliferation of MKN-45 cells
Text: (§1) Test 9: Mini Cell Panel: Assay for Inhibitory Activity of Compounds against Proliferation of 20 Tumor Cell Lines
(§2) Materials and Cells: Fifteen MTAP(-/-) cell lines and five MTAP wild-type cell lines were purchased from ATCC (USA). Cell culture media, fetal bovine serum (FBS), and penicillin-streptomycin were purchased from Thermo Fisher Scientific (USA). 384-well plates were purchased from PerkinElmer (USA). The CellTiter-Glo assay kit was purchased from Promega (USA). Paclitaxel was used as the control compound.

U87MG = test: Mini cell panel: inhibition of proliferation of U87MG cells; settings: MTAP (-/-)
Text: as §1, §2

Aspc-1 = test: Mini cell panel: inhibition of proliferation of Aspc-1 cells
Text: as §1, §2

Calu-1 = test: Mini cell panel: inhibition of proliferation of Calu-1 cells
Text: as §1, §2

[1] = system: HCT-116 MTAP(-/-) deficient cells; test: Inhibition of proliferation of HCT-116 MTAP(-/-) deficient cells (Cell-Titer Glo); settings: 8 days
Outline: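 Cells in log-phase growth, RPMI-1640 with 10% FBS, seeded and left overnight at 37°C, 5% CO2. Compound tested at 0–10,000 nM (10 points, 3-fold, 0.1% DMSO) for 8 days at 37°C, 5% CO2. Viability read by CellTiter-Glo luminescence.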

A549 = test: Mini cell panel: inhibition of proliferation of A549 cells
Text: as §1, §2

U87MG MTAP(-/-) cells = test: Inhibition of proliferation of U87MG MTAP(-/-) cells (CellTiter-Glo); settings: Homo sapiens, U-87 MG, 144 h, cell proliferation, 6 days
Outline: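 U87MG MTAP(-/-) cells in log phase, seeded overnight, then exposed 6 days at 37 °C, 5% CO2 to compound at 10,000 nM top, 3-fold dilutions, 10 points, 0.5% DMSO final. Viability read by CellTiter-Glo luminescence.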

MDA-MB-231 = test: Mini cell panel: inhibition of proliferation of MDA-MB-231 cells
Text: as §1, §2

SU-DHL-10 = test: Mini cell panel: inhibition of proliferation of SU-DHL-10 cells
Text: as §1, §2

15 MTAP(-/-) cell lines = test: Mini cell panel: summary over the MTAP(-/-) cell lines; settings: for selectivity, calculated based on the median values: MTAP wild-type vs MTAP(-/-) cell lines
Text: as §1, §2

CFPAC-1 = test: Mini cell panel: inhibition of proliferation of CFPAC-1 cells
Text: as §1, §2

[2] = system: LN18 MTAP-overexpressing cells; test: Inhibition of proliferation of LN18 MTAP-overexpressing cells (CellTiter-Glo); settings: cell proliferation, 7 days
Text: Test 6: Assay for Inhibitory Activity of Compounds against LN18 MTAP-Overexpressing Cell Proliferatio
Materials and Cells: The LN18 MTAP-overexpressing cell line was purchased from Cobioer Biosciences (China). Cell culture media, fetal bovine serum (FBS), and penicillin-streptomycin were purchased from Thermo Fisher Scientific (USA). 384-well plates were purchased from PerkinElmer (USA). The CellTiter-Glo assay kit was purchased from Promega (USA).
Cell Culture: LN18 MTAP-overexpressing cells were cultured in a medium supplemented with 10% fetal bovine serum (FBS) and 1% penicillin-streptomycin at 37°C with 5% CO2. Only cells in the logarithmic growth phase were used for experiments.
Cell Proliferation Inhibition Assay: The antiproliferative activity of the compounds against LN18 MTAP-overexpressing cells was assessed using the CellTiter-Glo assay kit. Cell suspensions were adjusted to the appropriate density and seeded into 384-well plates at a volume of 40 µL per well, then incubated overnight at 37°C with 5% CO2. Compounds (40 nL) were added to each well to achieve final concentrations ranging from 0 to 10,000 nM (starting concentration 10,000 nM, 3-fold serial dilutions, 9 dose points), with a final DMSO concentration of […]. The cell plates were incubated at 37°C with 5% CO2 for 7 days. Subsequently, 40 µL of CellTiter-Glo reagent was added to measure cell viability.

[3] = Homo sapiens, MKN-45, MTAP (-/-)
[4] = Homo sapiens, ASPC1, MTAP Wild type
[5] = Homo sapiens, Calu-1, MTAP Wild type
[6] = Homo sapiens, MDA-MB-231, MTAP (-/-)
[7] = Homo sapiens, SU-DHL10, MTAP Wild type
[8] = read-out: median IC50, 15 MTAP(-/-) cell lines
[9] = Homo sapiens, CFPAC-1, MTAP Wild type

| Compound | IC50 (MKN-45; [3]) [nM] | IC50 (U87MG; Homo sapiens, U-87 MG) [nM] | IC50 (Aspc-1; [4]) [nM] | IC50 (Calu-1; [5]) [nM] | IC50 ([1]; Homo sapiens, HCT-116, 192 h) [nM] | IC50 (A549; Homo sapiens, A549, MTAP (-/-)) [nM] | IC50 (U87MG MTAP(-/-) cells) [nM] | IC50 (MDA-MB-231; [6]) [nM] | IC50 (SU-DHL-10; [7]) [nM] | selectivity, calculated based on the median values (15 MTAP(-/-) cell lines) [fold] | IC50 (15 MTAP(-/-) cell lines; [8]) [nM] | IC50 (CFPAC-1; [9]) [nM] | IC50 ([2]; Homo sapiens, LN-18, 168 h) [nM] | further results |
| --- | --- | --- | --- | --- | --- | --- | --- | --- | --- | --- | --- | --- | --- | --- |
| CN(C(=O)c1cc2c(cn1)nc(N)c1cncn12)[C@@H]1COc2cc(C(F)(F)F)ccc21 [Example 4, (S)-4-amino-N-methy 1-N-(6-(trifluoromethy 1)-2,3-dihydrobenzofuran-3-yl)imidazo[1,5-a]pyrido[3,4-e]pyrazine-8-carboxamide] | 17.8 | 148 | 6600 | 3370 | 9.9 | 20.2 | 93.1 | 955 | 1300 | 44.2 | 38.8 | 407 | 868 | IC50 (15 MTAP(-/-) cell lines; span over the cell lines, read-out: IC50 values (range) against the 15 MTAP(-/-) cell lines): ≥ 2.4 nM |
| [2H]C([2H])([2H])N(C(=O)c1ccc2nc(N)c3cncn3c2c1)[C@@H]1COc2cc(C(F)(F)F)ccc21 [Example 16, (S)-4-amino-N-(methyl-d3)-N-(6-(trifluoromethyl)-2,3-dihydrobenzofuran-3-yl)imidaz o[1,5-a]quinoxaline-8-carboxamide] | – | – | – | – | 5.6 | – | 70.8 | – | – | – | – | – | 1200 | – |
| [2H]C([2H])([2H])N(C(=O)c1cc2c(cc1F)nc(N)c1cncn12)[C@@H]1COc2cc(C(F)(F)F)ccc21 [Example 41, (S)-4-amino-7-fluoro-N-(methyl-d3)-N-(6-(trifluoromethyl)-2,3-di hydrobenzofuran-3-yl)imidazo[1,5-a]quinox aline-8-carboxamide] | – | – | – | – | 11 | – | 58.5 | – | – | – | – | – | 1970 | – |
| CN(C(=O)c1ccc2nc(N)c3cncn3c2c1)[C@@H]1COc2cc(C(F)(F)F)ccc21 [Example 107, (S)-4-amino-N-methy 1-N-(6-(trifluoromethy 1)-2,3-dihydrobenzofuran-3-yl)imidazo[1,5-a]quinoxaline-8-carboxamide] | 43.1 | 327 | > 10000 | > 10000 | 7.4 | 69.1 | 111 | 2060 | 1700 | 58.8 | 56.6 | 781 | 1370 | – |
| (S)-4-amino-7-fluoro-N-methyl-N-(6-(triflu oromethyl)-2,3-dihydr obenzofuran-3-yl)imi dazo[1,5-a]quinoxalin e-8-carboxamide [Example 29] | – | – | – | – | – | – | – | – | – | 77.7 | 42.4 | – | – | IC50 (MKN-45; MTAP (-/-)): 39.8 nM; IC50 (U87MG): 1040 nM; IC50 (Aspc-1; MTAP Wild type): > 10000 nM; IC50 (Calu-1; MTAP Wild type): 2300 nM; IC50 [1]: 7.1 nM; IC50 (A549; MTAP (-/-)): 8.5 nM; IC50 (MDA-MB-231; MTAP (-/-)): 390 nM; IC50 (SU-DHL-10; MTAP Wild type): 1590 nM; IC50 (CFPAC-1; MTAP Wild type): 1060 nM; IC50 [2]: 812 nM |
